Experimental data as given in patent publication EP4417602A1, “SUBSTITUTED PYRAZOLE CARBOXAMIDES, SALTS THEREOF AND THEIR USE AS HERBICIDALLY ACTIVE SUBSTANCES” (Bayer AG, priority 2023, dated 2024).

Experiments:
VERPE = assay: E. Herbicidal post-emergence action, weed and crop plants (Tables E); assay type: in vivo, Veronica persica; settings: application rate 320 g/ha, visual assessment after ca. 3 weeks
Description: Seeds of mono- and dicotyledonous weed plants and crop plants were sown, in plastic or organic planting pots, in sandy loam, covered with soil and grown in a greenhouse under controlled growth conditions. 2 to 3 weeks after sowing, the test plants were sprayed in the single-leaf stage. The compounds according to the invention, formulated in form of wettable powders (WP) or as emulsifiable concentrates (EC), were sprayed onto the green plant parts as aqueous suspension or emulsion, with the addition of 0.5% of an additive, at an application rate of 6001 of water/ha (converted). The test plants were placed in the greenhouse for ca. 3 weeks under optimum growth conditions, and then the effect of the preparations was assessed visually in comparison with untreated controls (herbicidal effect in percent (%): 100% effect = plants have died off, 0% effect = as control plants). Tables E1 to E7 below show the effects of selected compounds of the general formula (I) according to table 1 on various harmful plants and an application rate corresponding to 320 g/ha or below obtained by the experimental procedure mentioned above. Table E1: post-emergence activity at 320g/ha against ALOMY in %

ABUTH = assay: A. Herbicidal pre-emergence action on harmful plants (Tables A); assay type: in vivo, Abutilon theophrasti; settings: application rate 1280 g/ha; visual grading after ca. 3 weeks vs untreated controls; 100% = plants have died off, 0% = as control plants
Description: Seeds of mono- and dicotyledonous weed plants were sown in plastic pots (double sowings with one species of mono- and one species of dicotyledonous weed plants per pot), in sandy loam, and covered with soil. The compounds according to the invention, formulated in the form of wettable powders (WP) or as emulsifiable concentrates (EC), were applied to the surface of the covering soil as aqueous suspension or emulsion, with the addition of 0.5% of an additive, at an application rate of 6001 of water per hectare (converted). Following treatment, the pots were placed in a greenhouse and kept under optimum growth conditions for the test plants. The visual grading of the damage to the test plants was carried out after ca. 3 weeks in comparison to untreated controls (herbicidal effect in percent (%): 100% effect = plants have died off, 0% effect = as control plants). Tables A1 to A12, below, show the effects of selected compounds of the general formula (I) according to table 1 on various harmful plants and an application rate corresponding to 1280 g/ha or below obtained by the experimental procedure mentioned above. Table A1: pre-emergence activity at 1280g/ha against ABUTH in %

| Structure (SMILES) | post-emergence activity against VERPE in % (VERPE) [%] | pre-emergence activity against ABUTH (ABUTH) [%] |
| --- | --- | --- |
| COCc1nn(C)cc1C(=O)N1CCCC1Cc1ccccc1F (single isomer, unassigned) [Example I-003] | 80 | – |
| COCc1c(C(=O)N2CCCC2Cc2ccccc2Cl)cnn1C (racemic) [Example I-170] | – | 90 |
